Our source for the IC50 and inhibition values is ChEMBL document CHEMBL1139939, “Synthesis and biological activity of naphthalene analogues of phenstatins: naphthylphenstatins” (Bioorg Med Chem Lett, 2007).

pIC50: −log10 of the molar value.

For orientation: pIC50 means the IC50 on a negative log10 scale, so that one unit is a factor of ten. What is called inhibition is how much of the control response was suppressed. Read a low inhibition as little suppression.

Assay [1] deals with HT-29. Description: Cytotoxicity against human HT29 cells. In kind it is functional, cell-based.
For assay [2], the system named is HeLa. Kind of assay: Cytotoxicity against human HeLa cells. In kind it is functional, cell-based.
Assay [3] has as its system A549. Description: Cytotoxicity against human A549 cells. In kind it is functional, cell-based.
The target of assay [4] is T1, Tubulin (Homo sapiens) (UniProt P68371+Q9H4B7+P0DPH7+P68366+Q13509+Q71U36+P04350+Q3ZCM7+P07437+P68363+Q9BQE3+Q6PEY2+Q13885+Q9BVA1+Q9BUF5). Description: Inhibition of tubulin polymerization at 20 uM. In kind it is protein-complex assay.
Assay [5] has as its target T1, Tubulin (Homo sapiens). Kind of assay: Inhibition of tubulin polymerization at 40 uM. In kind it is protein-complex assay.

With `COc1ccc(C(O)c2ccc3ccccc3c2)c(OC)c1OC` (centres undefined), the pIC50 in assay [1], in assay [2] and in assay [3] was < 5.00 in each case. The same molecule had an inhibition in assay [4] of 0%.

For `COc1cc(C(OC(C)=O)c2ccc3ccccc3c2)cc(OC)c1OC` (centres undefined), the pIC50 in assay [1] was < 5.00; in assay [2] it was 5.42; in assay [3], < 5.00. Moreover, in assay [4], the inhibition is 5%.

Take `COc1ccc(/C=C\c2cc(OC)c(OC)c(OC)c2)cc1O` [COMBRETASTATIN A4]: the pIC50 in assay [1] is 8.52.

As to `COc1ccc(C(=O)c2ccc3ccccc3c2)c(OC)c1OC`, the negative logarithm of the IC50 (pIC50) in assay [1] was < 5.00; in assay [2], 5.77; in assay [3] it was < 5.00. Moreover, the inhibition in assay [4] stood at 4%.

On to `COc1ccc(C(OC(C)=O)c2ccc3ccccc3c2)c(OC)c1OC` (centres undefined), for which the pIC50 in assay [1] was < 5.00; in assay [2], 5.57; in assay [3], < 5.00. The molecule further had an inhibition in assay [4] of 26%.

In assay [5], `COc1cc(C(=O)c2ccc3ccccc3c2)cc(OC)c1OC` came in with an inhibition of 100%. In addition, the results for the pIC50 in assay [2] and in assay [3] were 7.38 and 6.60, respectively.

Take `COc1cc(/C=C\c2ccc3ccccc3c2)cc(OC)c1OC` [NAPHTHYLCOMBRETASTATIN]: the pIC50 in assay [1], in assay [2] and in assay [3] was 7.70 throughout.

For `COc1cc(C(O)c2ccc3ccccc3c2)cc(OC)c1OC` (centres undefined), in assay [5], the inhibition turned out to be 0%.
